Source: patent US20240140941A1, “DERIVATIVE OF 2,5-DIKETOPIPERAZINE COMPOUND, AND PREPARATION METHOD THEREFOR, PHARMACEUTICAL COMPOSITION THEREOF AND USE THEREOF” (DALIAN WZ PROBIOTICS AD HEALTH CO., LTD, priority 2020, published 2024)
Structures can show the parent of a compound that is named as a salt. Where two headings read alike, the source gives them in different places.

Tests used:
NCI-H460 = assay: Inhibition test on cell proliferation (MTT), NCI-H460; assay type: cell-based, human; details: 72 hours of drug treatment, MTT, read-out: IC50 (nM) NCI-H460
Outline: (§1)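 Cells plated at 2000-6000 per well, allowed to adhere for 24 h, then exposed to serially diluted compound for 72 h at 37 °C, 5% CO2. Viability read by MTT reduction, with formazan dissolved in DMSO and absorbance taken at 490 nm. Inhibition rate calculated relative to untreated and zero-setting wells.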

HCC-LM3 = assay: Inhibition test on cell proliferation (MTT), HCC-LM3; assay type: cell-based, human; details: 72 hours of drug treatment, MTT, read-out: IC50 (nM) HCC-LM3
Outline: as §1

HT-29 = assay: Inhibition test on cell proliferation (MTT), HT-29; assay type: cell-based, human; details: 72 hours of drug treatment
Outline: as §1

BxPC-3 = assay: Inhibition test on cell proliferation (MTT), BxPC-3; assay type: cell-based, human; details: 72 hours of drug treatment, MTT, read-out: IC50 (nM) BxPC-3
Outline: as §1

[1] = Compound solubility experiment, Method 2: about 2 mg salt in 0.2 mL ultrapure water, dissolution observed; assay type: physicochemical; details: 37 °C, thermodynamic from solid, salts, 37±1° C., shaken 24 hours
Experimental: Method 2: A 0.5 mL brown EP tube was taken, about 2 mg of hydrochloride of derivatives of 2,5-diketopiperazine compounds was weighed respectively, and 0.2 mL of ultrapure water was added thereto. The mixture was vortexed, put into an incubation shaker, maintained at a temperature of (37±1° C.), shaken at 100 r/min for 24 hours, so as to achieve full dissolution equilibrium. The dissolution of the mixture was observed.

NCI-H460 cell line = assay: Cell apoptosis experiment (Annexin V/PI double staining, flow cytometer), NCI-H460; assay type: cell-based, human; details: for Proportion of late apoptotic cells / Proportion of early apoptotic cells: NCI-H460; for Proportion of late apoptotic cells: blank control 0.54%; for Proportion of early apoptotic cells: blank control 1.84%
Experimental: (§2) 1. Cell collection: The cell culture dish was taken out, the culture medium was washed with PBS, digested with EDTA-free trypsin, collected into a centrifuge tube. The number of cells per sample was about 1×10^6/mL, and the centrifuge tube was centrifuged at 800 r/min for 3 min, and the culture medium was discarded.
(§3) 2. The residue was washed twice with frozen PBS, centrifuged at 800 r/min for 3 min each time, and the supernatant was discarded.
(§4) 3. Blank group, single-stained group and double-stained group were set, and 100 μL of binding buffer was added thereto. 5 μL of FITC-annexin V and 5 μL of PI were chosen according to different groups, mixed gently, incubated at room temperature in the dark for 15 min, then 400 μL of binding buffer was added thereto, and the cells were gently mixed.
(§5) 4. After filtering the cell suspension with a 300-mesh nylon membrane, the cell suspension was detected by a flow cytometer.

β-tubulin [2] = assay: Immunofluorescence experiment, NCI-H460 cell line; assay type: cell-based, human; details: for β-tubulin fluorescence value: NCI-H460 cell line, control 20330 ± 1233
Experimental: (§6) 1. Cell membrane rupture: After the cover slip was shaken to slight dryness, a circle was drawn using a histochemical pen at the position where the cells were evenly distributed in the middle of the cover slip (to prevent the antibody from flowing away). 50 to 100 μL of membrane rupture working solution was added, and incubated at room temperature for 20 min, washed 3 times with PBS, 5 min each time.
(§7) 2. Serum blocking: BSA was added dropwise in the circle to evenly cover the tissue and block at room temperature for 30 min. (The primary antibody was from goat and blocked with 10% normal rabbit serum, and the primary antibody from other sources was blocked with 3% BSA)
(§8) 3. Adding the primary antibody: The blocking solution was shaken off gently, and the primary antibody was added dropwise in the cell well plate (prepared in a certain proportion using PBS), and the cell culture plate was placed flat in a humid box and incubated overnight at 4° C.
(§9) 4. Adding secondary antibody: PBS was added to the cell culture plate, placed on a decolorizing shaker, shaken and washed for 3 times, 5 min each time. After shaking to slight dryness, a secondary antibody corresponding to the species of the primary antibody in the histochemical kit was added dropwise in the circle to cover the tissue, and incubated at room temperature for 50 min.
(§10) 5. DAPI restaining nucleus: The cover slip was placed in PBS (pH 7.4), shaken and washed 3 times on the decolorizing shaker, 5 min each time. After the cover slip was shaken to slight dryness, DAPI staining solution was added dropwise in the circle, and incubated at room temperature for 10 min in the dark.
(§11) 6. Sealing the cover slip: The cover slip was placed in PBS (pH 7.4), shaken and washed 3 times on the decolorizing shaker, 5 min each time. After the cover slip was shaken to slight dryness, the cover slip was sealed with antifade mounting medium.
(§12) 7. Microscopic examination and photographing: The cover slip was observed under a fluorescent microscope and images were collected.

BxPC-3 cell line = assay: Cell apoptosis experiment (Annexin V/PI double staining, flow cytometer), BxPC-3; assay type: cell-based, human; details: for Proportion of late apoptotic cells / Proportion of early apoptotic cells: BxPC-3; for Proportion of late apoptotic cells: blank control 0.94%; for Proportion of early apoptotic cells: blank control 1.11%
Experimental: as §2, §3, §4, §5

β-tubulin [3] = assay: Immunofluorescence experiment, BxPC-3 cell line; assay type: cell-based, human; details: for β-tubulin fluorescence value: BxPC-3 cell line, control 29873 ± 4013
Experimental: as §6, §7, §8, §9, §10, §11, §12

[4] = Compound solubility experiment, Method 1: equilibrium solubility in pure water, LC-MS; assay type: physicochemical; details: ultrapure water, 37±1° C., shaken 24 hours
Experimental: Method 1: A 1.5 mL brown EP tube was taken, about 1 mg of compound was weighed respectively, and 1 mL of ultrapure water was added thereto. The mixture was vortexed, and sonicated until the compound was no longer dissolved (the solution was turbid or had suspended particles). The mixture was put into an incubation shaker, maintained at a temperature of (37±1° C.), shaken at 100 r/min for 24 hours, so as to achieve full dissolution equilibrium. After 24 hours, the supernatant was quickly filtered through a 0.45 μm microporous membrane, and the initial filtrate was discarded. 200 μL of the renewed filtrate was taken and diluted with 200 μL of methanol. The assay was repeated at least three times. According to the chromatographic conditions, the sample was injected by LC-MS, and the peak area was measured and the equilibrium solubility of each 2,5-diketopiperazine derivative in pure water was calculated.

Row | SMILES | IC50 (NCI-H460; hydrochloride) | IC50 (HCC-LM3; hydrochloride) | IC50 (HT-29; hydrochloride) | IC50 (BxPC-3; hydrochloride) | solubility at 24 h [1] | other results
1 | CC(C)c1c(/C=c2\[nH]c(=O)/c(=C/c3ccccc3)[nH]c2=O)ncn1CCCN1CCOCC1 [PLN-2-5-1, (3Z,6Z)-3-Benzylidene-6-((5-isopropyl-1-(3-morpholinyl)propylimidazol-4-yl)methylene)piperazine-2,5-dione, hydrochloride] | 17.8 ± 0.55 nM | 12.4 ± 2.68 nM | 11.8 ± 5.52 nM | 9.73 ± 0.3 nM | > 10000 µg/mL | 
2 | CC(C)c1c(/C=c2\[nH]c(=O)/c(=C/c3cccc(F)c3)[nH]c2=O)ncn1CCCN1CCOCC1 [PLN-2-9-1, (3Z,6Z)-3-(3-Fluorophenyl)methylene-6-((5-isopropyl-1-(3-morpholinyl)propylimidazol-4-yl)methylene)piperazine-2,5-dione, hydrochloride] | 8.87 ± 0.05 nM | 6.99 ± 0.59 nM | 6.22 ± 1.61 nM | 5.76 ± 1 nM | > 10000 µg/mL | 
3 | CC(C)c1c(/C=c2\[nH]c(=O)/c(=C/c3ccc(F)c(F)c3)[nH]c2=O)ncn1CCCN1CCOCC1 [PLN-2-63-1, hydrochloride] | 94.7 ± 9.48 nM | 66.6 ± 4.98 nM |  | 50.1 ± 7.79 nM | > 10000 µg/mL | 
4 | CC(C)(C)c1[nH]cnc1/C=c1\[nH]c(=O)/c(=C/c2ccccc2)[nH]c1=O [Plinabulin, reference compound] |  |  |  |  |  | Proportion of late apoptotic cells (NCI-H460 cell line): 5.18%; Proportion of early apoptotic cells (NCI-H460 cell line): 1.90%; β-tubulin fluorescence value (β-tubulin [2]): 8133; IC50 (NCI-H460; Homo sapiens, NCI-H460, 72 h): 11.6 ± 0.96 nM; Proportion of late apoptotic cells (BxPC-3 cell line): 3.85%; Proportion of early apoptotic cells (BxPC-3 cell line): 1.66%; IC50 (HCC-LM3; Homo sapiens, HCCLM3, 72 h): 8.31 ± 0.23 nM; Solubility [4]: <0.25 µg/mL; β-tubulin fluorescence value (β-tubulin [3]): 11000; IC50 (HT-29; Homo sapiens, HT-29, 72 h): 5.74 ± 0.73 nM; IC50 (BxPC-3; Homo sapiens, BXPC-3, 72 h): 5.41 ± 0.76 nM
5 | O=c1[nH]/c(=C\c2ncn(CCCN3CCOCC3)c2C2CC2)c(=O)[nH]/c1=C\c1cccc(Oc2ccc(F)cc2)c1 [PLN-2-4-1, (3Z,6Z)-3-(3-(p-Fluorophenoxy)phenyl)methylene-6-((5-cyclopropyl-1-(3-morpholinyl)propylimidazol-4-yl)methylene)piperazine-2,5-dione, hydrochloride] | 23.8 ± 1.36 nM |  |  |  | > 10000 µg/mL | 
6 | O=c1[nH]/c(=C\c2ncn(CCCN3CCOCC3)c2C2CC2)c(=O)[nH]/c1=C\c1cccc(F)c1 [PLN-2-10-1, (3Z,6Z)-3-(3-Fluorophenyl)methylene-6-((5-cyclopropyl-1-(3-morpholinyl)propylimidazol-4-yl)methylene)piperazine-2,5-dione, hydrochloride] | 18.37 ± 0.13 nM | 12 ± 2.67 nM | 11.1 ± 1.39 nM | 12 ± 1.27 nM | > 10000 µg/mL | 
7 | CC(C)c1c(/C=c2\[nH]c(=O)/c(=C/c3cc(F)ccc3F)[nH]c2=O)ncn1CCCN1CCOCC1 [PLN-2-7-1, (3Z,6Z)-3-(2,5-Difluorophenyl)methylene-6-((5-isopropyl-1-(3-morpholinyl)propylimidazol-4-yl)methylene)piperazine-2,5-dione, hydrochloride] | 6.93 ± 4.85 nM | 4 ± 1.5 nM | 5.61 ± 1.96 nM | 4.83 ± 0.2 nM | > 10000 µg/mL | 

Continued by falling IC50 (NCI-H460; hydrochloride), values first:

Row | IC50 (NCI-H460; hydrochloride) | IC50 (HCC-LM3; hydrochloride) | IC50 (HT-29; hydrochloride) | IC50 (BxPC-3; hydrochloride) | solubility at 24 h [1] | SMILES | other results
8 | 6.87 ± 0.47 nM | 5.32 ± 1.38 nM | 3.79 ± 0.04 nM | 3.75 ± 0.06 nM | > 10000 µg/mL | CC(C)c1c(/C=c2\[nH]c(=O)/c(=C/c3cc(F)cc(F)c3)[nH]c2=O)ncn1CCCN1CCOCC1 [PLN-2-62-1, (3Z,6Z)-3-(3,5-Difluorophenyl)methylene-6-((5-isopropyl-1-(3-morpholinyl)propylimidazol-4-yl)methylene)piperazine-2,5-dione, hydrochloride] | 
9 | 5.6 ± 0.41 nM |  |  |  | > 10000 µg/mL | O=C(c1ccc(F)cc1)c1cccc(/C=c2\[nH]c(=O)/c(=C/c3ncn(CCCN4CCOCC4)c3C3CC3)[nH]c2=O)c1 [PLN-2-3-1, (3Z,6Z)-3-(3-(p-Fluorobenzoyl)phenyl)methylene-6-((5-cyclopropyl-1-(3-morpholinyl)propylimidazol-4-yl)methylene)piperazine-2,5-dione, hydrochloride] | number of apoptosis (NCI-H460 cell line; NCI-H460, in words): significantly increased; Proportion of late apoptotic cells (NCI-H460 cell line): 6.76%; Proportion of early apoptotic cells (NCI-H460 cell line): 3.08%; β-tubulin fluorescence value (β-tubulin [2]): 7822; number of tubulin distributed radially (β-tubulin [2]; NCI-H460 cells, in words): significantly reduced; number of apoptosis (BxPC-3 cell line; BxPC-3, in words): significantly increased; Proportion of late apoptotic cells (BxPC-3 cell line): 5.83%; Proportion of early apoptotic cells (BxPC-3 cell line): 2.75%; β-tubulin fluorescence value (β-tubulin [3]): 9000; number of tubulin distributed radially (β-tubulin [3]; BxPC-3 cells, in words): significantly reduced
10 | 2.8 ± 1.15 nM | 1.76 ± 0.3 nM | 1.5 ± 0.58 nM | 1.21 ± 0.21 nM | > 10000 µg/mL | CC(C)c1c(/C=c2\[nH]c(=O)/c(=C/c3cccc(Oc4ccc(F)cc4)c3)[nH]c2=O)ncn1CCCN1CCOCC1 [PLN-2-2-1, hydrochloride] | 
